Key:
Escherichia coli = assay: Antibacterial activity against Escherichia coli ATCC 25922 assessed as reduction in bacterial growth measured for 18 to 20 hrs by microbroth dilution method; type: functional; conditions: time 18-20 hrs
Pseudomonas aeruginosa = assay: Antibacterial activity against Pseudomonas aeruginosa ATCC 27853 assessed as reduction in bacterial growth measured for 18 to 20 hrs by microbroth dilution method; type: functional; conditions: time 18-20 hrs
Staphylococcus aureus = assay: Antibacterial activity against Staphylococcus aureus ATCC 29213 assessed as reduction in bacterial growth measured for 18 to 20 hrs by microbroth dilution method; type: functional; conditions: time 18-20 hrs
Bacillus subtilis = assay: Antibacterial activity against Bacillus subtilis ATCC 6051 assessed as reduction in bacterial growth measured for 18 to 20 hrs by microbroth dilution method; type: functional; conditions: time 18-20 hrs
[1] = Hemolytic activity in sheep RBC assessed as hemolysis incubated for 30 mins by microplate reader method; type: toxicity, cell-based, Ovis aries, Erythrocyte; conditions: sheep red blood cells (erythrocytes), read-out: Activity
[2] = Hemolytic activity in sheep RBC assessed as 50% hemolysis incubated for 30 mins by microplate reader method; type: toxicity, cell-based, Ovis aries, Erythrocyte; conditions: sheep red blood cells (erythrocytes)
[3] = (§1) Selectivity index, ratio of HC50 for hemolytic activity in sheep RBC assessed as 50% hemolysis incubated for 30 mins by microplate reader method to MIC for antibacterial activity against Escherichia coli ATCC 25922 assessed as reduction in bacterial growth measured for 18 to 20 hrs by microbroth dilution method; type: toxicity; conditions: sheep red blood cells (erythrocytes), read-out: Selectivity Index
[4] = as §1, with “Pseudomonas aeruginosa” for “Escherichia coli”, “27853” for “25922”; type: toxicity; conditions: sheep red blood cells (erythrocytes), read-out: Selectivity Index
[5] = as §1, with “Staphylococcus aureus” for “Escherichia coli”, “29213” for “25922”; type: toxicity; conditions: sheep red blood cells (erythrocytes), read-out: Selectivity Index
[6] = as §1, with “Bacillus subtilis” for “Escherichia coli”, “6051” for “25922”; type: toxicity; conditions: sheep red blood cells (erythrocytes), read-out: Selectivity Index
Erythrocyte = assay: Hemolytic activity in sheep RBC assessed as hemolysis at 1000 ug/ml incubated for 30 mins by microplate reader method; type: toxicity, cell-based, Ovis aries; conditions: 0.5 h, dose 1000 µg/ml

MIC (Escherichia coli) [mg/L]	MIC (Pseudomonas aeruginosa) [mg/L]	MIC (Staphylococcus aureus) [mg/L]	MIC (Bacillus subtilis) [mg/L]	Substance	hemolysis at 0.5 h [1] [%]	HC50 at 0.5 h [2] [µg/mL]	selectivity ratio at 30 min [3]	selectivity ratio at 30 min [4]	selectivity ratio at 30 min [5]	selectivity ratio at 30 min [6]	Activity (Erythrocyte)
4	8	4	32	H-KWKLFKKIGAVLRVL-NH2	10	280	70	35	70	9	
4	8	4	64	H-KWKLFKRIGAVLKVL-NH2	10	> 1000	> 250	> 125	> 250	> 16	
4	8	4	64	H-KWKLFRKIGAVLKVL-NH2	10	935	234	117	234	15	
4	8	4	32	H-KWRLFKKIGAVLKVL-NH2	10	750	188	94	188	23	
4	8	4	32	H-RWKLFKKIGAVLKVL-NH2	10	450	113	56	113	14	
4	4	8	16	H-RWRLFRRIGAVLRVL-NH2		230	58	58	29	14	Toxic
